The results in this text go back to ChEMBL document CHEMBL1201862, “PubChem BioAssay data set” (2004).

The target of assay [1] is SWI/SNF-related matrix-associated actin-dependent regulator of chromatin subfamily A member 2 (Homo sapiens, UniProt P51531). Put plainly: Luminescence-based cell-based high throughput dose response assay to identify activators of the function of SWI/SNF related, matrix associated, actin dependent regulator of chromatin, subfamily a, member 2 (SMARCA2, BRM). The class given is functional.
SWI/SNF-related matrix-associated actin-dependent regulator of chromatin subfamily A member 2, sequence (P51531 whole entry): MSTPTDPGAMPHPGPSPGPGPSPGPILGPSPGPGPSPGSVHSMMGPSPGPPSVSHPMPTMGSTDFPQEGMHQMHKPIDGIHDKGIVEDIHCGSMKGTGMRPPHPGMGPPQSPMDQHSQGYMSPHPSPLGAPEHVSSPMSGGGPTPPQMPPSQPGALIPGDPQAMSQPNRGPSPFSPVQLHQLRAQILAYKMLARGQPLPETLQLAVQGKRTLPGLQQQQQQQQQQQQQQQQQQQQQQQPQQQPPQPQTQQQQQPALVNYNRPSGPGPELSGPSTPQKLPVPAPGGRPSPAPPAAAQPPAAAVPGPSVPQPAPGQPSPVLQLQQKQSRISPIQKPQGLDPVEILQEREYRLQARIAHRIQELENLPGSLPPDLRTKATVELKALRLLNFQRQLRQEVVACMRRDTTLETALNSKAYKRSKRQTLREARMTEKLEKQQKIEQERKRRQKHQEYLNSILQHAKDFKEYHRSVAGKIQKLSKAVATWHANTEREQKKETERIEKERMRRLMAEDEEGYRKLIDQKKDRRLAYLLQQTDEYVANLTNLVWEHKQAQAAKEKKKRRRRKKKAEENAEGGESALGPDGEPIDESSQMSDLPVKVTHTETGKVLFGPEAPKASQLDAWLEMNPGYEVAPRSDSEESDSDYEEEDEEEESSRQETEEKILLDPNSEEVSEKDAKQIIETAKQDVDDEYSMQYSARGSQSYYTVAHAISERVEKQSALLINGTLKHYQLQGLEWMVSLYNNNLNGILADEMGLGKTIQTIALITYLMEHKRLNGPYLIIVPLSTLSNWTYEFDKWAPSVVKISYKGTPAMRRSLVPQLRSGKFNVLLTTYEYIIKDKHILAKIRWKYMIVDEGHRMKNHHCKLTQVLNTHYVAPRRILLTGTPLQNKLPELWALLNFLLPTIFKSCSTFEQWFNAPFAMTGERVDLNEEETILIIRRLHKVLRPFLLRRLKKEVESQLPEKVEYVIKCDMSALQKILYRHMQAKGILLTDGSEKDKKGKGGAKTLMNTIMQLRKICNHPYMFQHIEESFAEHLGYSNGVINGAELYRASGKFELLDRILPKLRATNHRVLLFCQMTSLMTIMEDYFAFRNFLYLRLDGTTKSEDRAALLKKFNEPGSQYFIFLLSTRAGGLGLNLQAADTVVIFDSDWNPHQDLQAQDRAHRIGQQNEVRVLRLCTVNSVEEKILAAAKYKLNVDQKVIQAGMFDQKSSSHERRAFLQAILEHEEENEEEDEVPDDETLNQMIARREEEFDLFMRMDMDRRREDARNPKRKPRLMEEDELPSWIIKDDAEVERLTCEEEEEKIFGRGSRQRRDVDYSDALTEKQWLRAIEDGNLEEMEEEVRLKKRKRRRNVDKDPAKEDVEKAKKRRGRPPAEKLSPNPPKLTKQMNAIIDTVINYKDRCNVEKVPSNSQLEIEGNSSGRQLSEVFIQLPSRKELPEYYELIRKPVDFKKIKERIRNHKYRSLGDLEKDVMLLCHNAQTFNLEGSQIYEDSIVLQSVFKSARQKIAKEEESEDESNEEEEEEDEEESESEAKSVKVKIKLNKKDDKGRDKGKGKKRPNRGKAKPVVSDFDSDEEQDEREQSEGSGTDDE

A short description of assay [2]: Counterscreen for activators of the function of SWI/SNF related, matrix associated, actin dependent regulator of chromatin, subfamily a, member 2 (SMARCA2, BRM): Luminescence-based cell-based high throughput dose response assay to identify non-selective compounds using the VP16 reporter assay. The class given is functional.
In assay [3] the target is T1, Acyl-homoserine lactone acylase PvdQ (Pseudomonas aeruginosa (strain LESB58), UniProt Q9I194).
T1 sequence (Q9I194 whole entry): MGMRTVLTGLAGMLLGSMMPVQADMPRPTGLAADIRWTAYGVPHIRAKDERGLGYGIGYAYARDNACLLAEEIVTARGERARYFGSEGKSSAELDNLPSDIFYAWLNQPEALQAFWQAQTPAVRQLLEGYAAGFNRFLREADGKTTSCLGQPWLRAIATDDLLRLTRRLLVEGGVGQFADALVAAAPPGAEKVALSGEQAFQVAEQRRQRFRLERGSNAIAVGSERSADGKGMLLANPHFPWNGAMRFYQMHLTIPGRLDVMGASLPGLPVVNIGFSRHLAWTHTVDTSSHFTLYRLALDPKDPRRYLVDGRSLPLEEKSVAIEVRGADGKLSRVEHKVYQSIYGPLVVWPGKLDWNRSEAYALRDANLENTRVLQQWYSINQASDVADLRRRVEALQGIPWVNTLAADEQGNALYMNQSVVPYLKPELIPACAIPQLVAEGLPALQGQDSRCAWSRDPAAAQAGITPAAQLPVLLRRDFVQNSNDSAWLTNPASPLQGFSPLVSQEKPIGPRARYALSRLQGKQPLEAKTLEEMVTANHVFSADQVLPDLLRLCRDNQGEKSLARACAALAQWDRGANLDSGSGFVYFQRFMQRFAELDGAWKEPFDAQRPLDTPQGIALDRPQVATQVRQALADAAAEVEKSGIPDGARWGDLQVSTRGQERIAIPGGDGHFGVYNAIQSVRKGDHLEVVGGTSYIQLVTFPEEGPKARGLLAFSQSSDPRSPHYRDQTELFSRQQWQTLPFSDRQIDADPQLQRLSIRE
Put plainly: P. aeruginosa PvdQ acylase inhibitors, dose response, biochemical, fluorescence, plate reader and imaging, cherry-picks (AID 493231).

Assay [4] in a line: Luminescence Cell-Based Dose Confirmation HTS to Identify Inhibitors of Platelet Dense Granule Release. [Related pubchem assays: 1663 (Primary HTS), 1678 (Summary of Project)]. The class given is functional.
Assay [5] addresses Luciferin 4-monooxygenase (Photinus pyralis, UniProt P08659). Put plainly: firefly luciferase enzyme inhibitors, dose response, biochemical, luminescence (AID 1891).
A short description of assay [6]: HepG2 cell cytotoxicity, dose response, cytotoxicity control, cherry-picked samples (AID 1159577). The class given is functional, cell-based.
Assay [7] is described as follows: P. falciparum Dd2 growth inhibitors, dose response, SYBR Green, cherry-picked samples (AID 1159567). The class given is functional, cell-based.
In assay [8] the target is T2, Carboxy-terminal domain RNA polymerase II polypeptide A small phosphatase 1 (Homo sapiens, UniProt Q9GZU7).
T2 sequence (Q9GZU7 whole entry): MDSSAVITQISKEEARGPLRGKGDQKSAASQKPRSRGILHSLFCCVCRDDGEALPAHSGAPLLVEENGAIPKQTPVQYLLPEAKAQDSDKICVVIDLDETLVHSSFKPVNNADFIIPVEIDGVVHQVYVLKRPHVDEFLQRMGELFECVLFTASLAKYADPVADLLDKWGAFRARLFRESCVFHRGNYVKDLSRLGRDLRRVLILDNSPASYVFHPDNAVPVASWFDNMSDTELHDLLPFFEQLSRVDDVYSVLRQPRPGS
Put plainly: inhibitors of CTDSP1, concentration-response testing, biochemical assay, absorbance-based, actives from ultra-high-throughput screening (AID 540297). In kind it is functional.

Another assay addresses T3, Estrogen receptor (Homo sapiens, UniProt P03372).
T3 sequence (P03372 whole entry): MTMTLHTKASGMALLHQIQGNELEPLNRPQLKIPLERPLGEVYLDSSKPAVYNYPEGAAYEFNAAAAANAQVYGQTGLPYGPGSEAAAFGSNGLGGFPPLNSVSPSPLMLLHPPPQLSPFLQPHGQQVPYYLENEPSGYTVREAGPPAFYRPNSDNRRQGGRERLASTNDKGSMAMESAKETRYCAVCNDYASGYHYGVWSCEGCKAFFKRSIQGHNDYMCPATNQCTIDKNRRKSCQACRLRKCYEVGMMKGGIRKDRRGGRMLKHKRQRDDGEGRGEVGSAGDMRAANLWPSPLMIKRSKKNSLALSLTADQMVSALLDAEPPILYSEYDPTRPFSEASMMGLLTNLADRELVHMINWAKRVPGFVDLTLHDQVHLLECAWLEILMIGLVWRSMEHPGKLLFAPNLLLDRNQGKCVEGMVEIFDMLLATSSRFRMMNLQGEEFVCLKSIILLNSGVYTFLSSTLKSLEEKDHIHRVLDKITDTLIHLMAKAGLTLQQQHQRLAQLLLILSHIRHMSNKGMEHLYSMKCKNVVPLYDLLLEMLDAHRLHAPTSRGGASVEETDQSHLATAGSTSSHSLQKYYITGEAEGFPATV

For assay [9], the target named is T4, Estrogen receptor beta (Homo sapiens, UniProt Q92731).
T4 sequence (Q92731 whole entry): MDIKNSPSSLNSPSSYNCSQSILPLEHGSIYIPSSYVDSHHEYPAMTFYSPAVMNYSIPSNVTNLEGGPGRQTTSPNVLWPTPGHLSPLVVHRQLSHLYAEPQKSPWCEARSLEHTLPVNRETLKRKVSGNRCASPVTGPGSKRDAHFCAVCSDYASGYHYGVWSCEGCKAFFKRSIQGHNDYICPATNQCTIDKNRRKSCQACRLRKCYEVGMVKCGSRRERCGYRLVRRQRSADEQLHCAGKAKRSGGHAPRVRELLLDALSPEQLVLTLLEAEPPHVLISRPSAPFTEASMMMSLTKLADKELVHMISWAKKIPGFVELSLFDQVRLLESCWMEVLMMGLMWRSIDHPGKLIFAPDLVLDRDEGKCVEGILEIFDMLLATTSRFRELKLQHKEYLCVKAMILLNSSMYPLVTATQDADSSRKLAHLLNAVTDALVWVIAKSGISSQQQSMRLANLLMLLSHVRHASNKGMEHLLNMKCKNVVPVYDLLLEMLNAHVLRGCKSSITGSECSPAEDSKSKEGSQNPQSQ
The target of assay [10] is T4, Estrogen receptor beta. Put plainly: ERβ–SRC-3 coactivator interaction inhibitors, confirmation, orthogonal assay, biochemical, ELISA, streptavidin-HRP readout (AID 1060).
The target of another assay is T5, Protein Tat (Human immunodeficiency virus type 1 group M subtype B (isolate HXB2)(HIV-1), UniProt P04608).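 Also: tat binding to TAR RNA read out by fluorescence polarization.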
T5 sequence (P04608 whole entry): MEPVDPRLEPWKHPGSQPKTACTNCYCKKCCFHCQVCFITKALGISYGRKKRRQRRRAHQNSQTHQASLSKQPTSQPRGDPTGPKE
The class given is functional.

Assay [11] is described as follows: CEM21 lymphoblast cell cytotoxicity, dose response, cytotoxicity control for viral fusion inhibitor project, CellTiter-Glo luminescence, cherry-picked (AID 652042).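 Also: potency for signal decrease meaning cytotoxicity.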 In kind it is functional, cell-based. On the technique in general: ATP-based viability assays read luminescence as a measure of living cells.
The nature of assay [12]: inhibitors of HIV Env-driven cell fusion, dose response, cherry-pick (AID 652057). The class given is functional, cell-based.
The nature of assay [13]: inhibitors of clade B AD8 Env fusion, dose response, cell-based, cherry-pick (AID 652062).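 Also: luciferase signal from cell-cell fusion driven by HIV-1 clade B AD8 Env; potency is for inhibitors of fusion seen as a drop in luminescence.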 In kind it is functional.
The nature of assay [14]: HEK293T cytotoxicity, dose response, cytotoxicity control for miR-122 modulator project, cell-based, inhibitor set, cherry-pick, set 2 (AID 720697). In kind it is functional.
Assay [15] can be described thus: ZM109 Env clade C HIV-1 fusion inhibitors, dose response, HeLa effector, CEM target cells, luciferase, cherry-pick (AID 652058). The class given is functional, cell-based.
Assay [16] is described as follows: off-target signal loss in HeLa-CEM21 co-culture – HeLa F-luc CTL cells, cherry-picked, counter-screen for HIV-1 Env fusion inhibitor project, dose response (AID 652040).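 Also: potency for signal decrease marking cytotoxic or nonspecific inhibition.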 The class given is functional, cell-based. (The purpose of a counterscreen is to sort out artefacts and off-target activity.)
Assay [17] deals with T6, Calpain-2 catalytic subunit (Sus scrofa, UniProt P43367).
T6 sequence (P43367 whole entry): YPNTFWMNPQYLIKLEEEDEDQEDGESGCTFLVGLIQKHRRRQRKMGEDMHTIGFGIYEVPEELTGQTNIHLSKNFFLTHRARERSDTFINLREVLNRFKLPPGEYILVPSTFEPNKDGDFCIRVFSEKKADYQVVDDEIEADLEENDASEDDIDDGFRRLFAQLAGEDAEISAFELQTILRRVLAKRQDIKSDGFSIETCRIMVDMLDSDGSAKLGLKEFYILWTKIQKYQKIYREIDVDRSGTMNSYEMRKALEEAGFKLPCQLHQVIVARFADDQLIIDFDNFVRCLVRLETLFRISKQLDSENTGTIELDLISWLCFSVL
Put plainly: pig calpain II inhibitor potency, dose response, biochemical, fluorogenic peptide substrate (AID 1420). The class given is functional.

For a further assay, the system named is INS1. Put plainly: beta cell apoptosis inhibitors, cytokine rescue, dose response, luminescence, retest (AID 449756).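 Also: cell death triggered by IL-1 beta plus TNF-alpha plus IFN-gamma mixture; protective hits raise ATP signal compared with cytokine alone wells.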 In kind it is functional, cell-based. The settings on record: Rattus norvegicus.
Assay [18] is described as follows: Luminescence-based counterscreen assay for KLF5 inhibitors: dose response cell-based high throughput screening assay to identify cytotoxic compounds using the IEC-6 intestinal epithelial cell line. [Related pubchem assays: 1700 (Primary screen.), 1834 (Confirmation screen.), 1858 (Summary AID.), 1905 (Counterscreen.)]. In kind it is functional.
Assay [19] is described as follows: HEK293T cytotoxicity, dose response, cytotoxicity control for miR-122 modulator project, cell-based, activator set, cherry-pick (AID 720690).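 Also: HEK293T human cells scored for general mammalian cytotoxicity.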 In kind it is functional.

Molecules are shown by their SMILES. Activity calls are given as the source filed them.

Luciferin 4-monooxygenase, sequence (P08659 whole entry): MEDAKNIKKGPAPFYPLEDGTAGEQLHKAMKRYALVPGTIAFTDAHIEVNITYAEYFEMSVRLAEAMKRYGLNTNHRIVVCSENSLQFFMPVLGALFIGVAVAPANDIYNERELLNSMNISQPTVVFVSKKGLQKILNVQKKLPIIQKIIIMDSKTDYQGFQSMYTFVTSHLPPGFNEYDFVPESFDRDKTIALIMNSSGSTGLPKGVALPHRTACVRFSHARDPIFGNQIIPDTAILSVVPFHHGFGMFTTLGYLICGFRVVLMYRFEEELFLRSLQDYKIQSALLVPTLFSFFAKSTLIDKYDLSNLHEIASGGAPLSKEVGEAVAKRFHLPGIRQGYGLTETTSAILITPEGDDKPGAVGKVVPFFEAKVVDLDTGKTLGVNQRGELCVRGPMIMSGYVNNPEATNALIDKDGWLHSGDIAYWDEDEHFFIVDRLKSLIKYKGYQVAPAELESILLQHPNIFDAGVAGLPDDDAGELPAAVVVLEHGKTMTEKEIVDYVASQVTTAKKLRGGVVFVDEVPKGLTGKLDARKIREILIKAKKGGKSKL

For `O=C(NNC(S)=Nc1ccc(F)cc1F)c1ccco1`, the EC50 in [1] and in assay [2] was > 91.2 µM (inactive) in each case.

As for `COc1ccc(N2CCN(C(=O)c3ccc(Br)o3)CC2)cc1`, the AC50 in assay [3] was 7.33 µM (active).

For the compound `CCN(CC)c1ccc(Nc2cc3n(c(=O)n2)CCc2cc(OC)c(OC)cc2-3)cc1`, the EC50 was > 112 µM (not active) in [4], > 91.2 µM (inactive) in [1], > 112 µM (not active) in assay [5] and > 91.2 µM (inactive) in assay [2].

For the compound `O=C(C[C@H]1C[C@H]2c3cc(NS(=O)(=O)c4ccc(F)cc4)ccc3O[C@H]2[C@H](CO)O1)NCc1ccc(Cl)cc1`, the AC50 was > 39 µM (inactive) in [6] and 6.82 µM (active) in assay [7].

Consider `CCOC(=O)C1=C(O)/C(=C\c2ccc(CNC(=O)C(=O)Nc3ccccc3)o2)N=C1C`, for which the IC50 in [8] was 8.55 µM (active); on Estrogen receptor, 5.73 µM (active); at Estrogen receptor beta [9], < 1.56 µM (active); on Estrogen receptor beta [10], 1.95 µM (not active); on Protein Tat, 5.9 µM (inconclusive).

As to `CCC(=O)c1ccc(OC(=O)c2cccs2)cc1`, in [3], the AC50 was > 100 µM (inactive).

With `C[C@H]1CN([C@@H](C)CO)C(=O)c2c(c3ccccc3n2C)-c2ccccc2CO[C@@H]1CN(C)C(=O)Cc1ccccc1`, the AC50 in assay [7] is 3.45 µM (active); in [11] it was 27.4 µM (active); in assay [12] it was < 0.26 µM (active); in assay [13], < 0.26 µM (active).

On to `CN(C[C@H]1N[C@@H](CO)[C@H]1c1ccc(-c2ccccc2)cc1)C(=O)C1CCC1`, for which the AC50 in assay [14] is 10.2 µM (active).

With `CC(C)[C@H](N)C(=O)N[C@H]1CCC2C3CC=C4C[C@@H](O)CC[C@]4(C)C3CC[C@@]21C` (some centres not stated), the EC50 in assay [1] and in assay [2] was > 91.2 µM (inactive) in each case.

As to `CC(=O)NC(C)C(=O)OCC(=O)Nc1ccc(Br)cc1` (configuration not stated), at Estrogen receptor, the half-inhibitory concentration (IC50) was > 50 µM (not active).

As for `COC(=O)c1ccc(OC(=O)c2cccs2)cc1`, the AC50 in assay [3] is 7.15 µM (active).

Regarding `Cn1cccc1C(C#N)c1ccccc1C#N` (configuration not stated), the half-maximal activity concentration (AC50) in assay [3] was 7.71 µM (active).

Take `CC[C@@]12C(=O)N(c3cccc(Cl)c3)C(=O)N1[C@H](c1ccc(Br)cc1)[C@@H]1C(=O)N(C(C)(C)C)C(=O)[C@@H]12`: the concentration at half-maximal activity (AC50) in [11] is 65.5 µM (active); in assay [15], < 0.26 µM (active); in [12], < 0.26 µM (active); in assay [16], < 0.26 µM (active); in assay [13], 0.342 µM (active).

Turning to `O=C(Nc1cccnc1)c1cccs1`, the concentration for half-maximal inhibition (IC50) in [17] was > 50 µM (not active); in [18], 38.4 µM (not active). Besides, the AC50 in the assay on INS1 was 6.6 µM (active).

As to `O=S(=O)(NCc1csc(-c2cccnc2)n1)c1ccc(Cl)s1`, the figures for the IC50 on Estrogen receptor, on Estrogen receptor beta [9] and on Estrogen receptor beta [10] were 13.6 µM (active), 11.8 µM (active) and 99.4 µM (not active), respectively.

`CC(C)CC#Cc1ccc([C@H]2[C@@H](CO)N3CCCCN(S(=O)(=O)Cc4ccccc4)C[C@H]23)cc1`: the values for the half-maximal activity concentration (AC50) in [6], in assay [7] and in assay [19] were 8.87 µM (active), 5.43 µM (active) and 15 µM (active), respectively.

Regarding `CC(=N)/C(C#N)=C(/O)CSc1nnc(COc2ccccc2Cl)o1`, the half-maximal inhibitory concentration (IC50) on Estrogen receptor was 37.2 µM (not active); in [17], < 0.4 µM (not active); at Estrogen receptor beta [9] it was 8.99 µM (active); against Estrogen receptor beta [10] it was 5.64 µM (not active).

Turning to `CCCCN1C(=O)NC(=O)C2(Cc3ccccc3N3CCOCC32)C1=O` (configuration not stated), at Protein Tat, the IC50 is > 100 µM (active).

In the case of `CN(C)c1ccc(/C=N/Nc2cccc(C(=O)O)c2)cc1`, the IC50 in assay [18] is on record as > 39.8 µM (not active).

For the compound `O=C(OCc1cc(=O)oc2cc(O)ccc12)c1cc(S(=O)(=O)N2CCOCC2)ccc1F`, the EC50 in assay [1] and in assay [2] was > 91.2 µM (inactive) in each case.

As a reminder, the EC50 is the concentration giving half of the maximal effect. Usually AC50 stands for the concentration at which the activity in the assay is half-maximal. For orientation: IC50 means the concentration needed to halve the response being measured.
